*1 amine or outer side, *2 acyl side, *3 side chain or, on linkers, in order; H or OH if unused. Where a SMILES comes first, the peptide text is derived from it. Side-chain parts run from the residue outwards. [ ]: non-standard residue; d: D form. The star is where a group is joined. γGlu = O=C(O)[C@H](CCC(=O)[*:2])N[*:1]; Stearoyl = CCCCCCCCCCCCCCCCCC(=O)*; Palmitoyl = CCCCCCCCCCCCCCCC(=O)*; Aib = CC(C)(N)C(=O)O
Experiments:
Type in all cases: cell-based
Settings in all cases: Table 7; cAMP formation
[1] = biological target: T1, human GLP-1 receptor (hGLP-1 R) (Homo sapiens, UniProt P43220); experiment: cAMP response of HEK-293 cells stably expressing human GLP-1 receptor (HTRF)
T1 construct: expressed in transfected cells
Summary of the method: (§1)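 cAMP accumulation was read by homogeneous time-resolved fluorescence after 30 min compound exposure at room temperature. Stable receptor-expressing HEK-293 cells, 400000 cells/ml, were used in HEPES-buffered HBSS containing 0.1% BSA and the phosphodiesterase inhibitor IBMX (2 mM).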

[2] = biological target: T2, human GIP receptor (hGIP R) (Homo sapiens, UniProt P48546); experiment: cAMP response of HEK-293 cells stably expressing human GIP receptor (HTRF)
T2 construct: expressed in transfected cells
T2 sequence (P48546 22-466): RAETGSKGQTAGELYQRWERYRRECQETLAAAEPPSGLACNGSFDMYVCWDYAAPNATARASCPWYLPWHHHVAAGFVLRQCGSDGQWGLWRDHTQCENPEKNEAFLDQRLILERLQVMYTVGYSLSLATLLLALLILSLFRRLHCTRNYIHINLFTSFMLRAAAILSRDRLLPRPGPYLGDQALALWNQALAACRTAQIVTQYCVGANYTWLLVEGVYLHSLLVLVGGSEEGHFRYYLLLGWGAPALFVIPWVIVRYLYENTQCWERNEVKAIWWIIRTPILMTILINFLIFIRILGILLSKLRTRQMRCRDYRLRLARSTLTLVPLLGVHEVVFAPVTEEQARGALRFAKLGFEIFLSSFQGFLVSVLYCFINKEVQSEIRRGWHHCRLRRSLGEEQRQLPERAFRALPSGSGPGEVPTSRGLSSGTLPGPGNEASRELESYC
Summary of the method: as §1

[3] = biological target: T3, human glucagon receptor (hGLUC R) (Homo sapiens, UniProt P47871); experiment: cAMP response of HEK-293 cells stably expressing human glucagon receptor (HTRF)
T3 construct: expressed in transfected cells
Summary of the method: as §1

T3 sequence (P47871 26-477): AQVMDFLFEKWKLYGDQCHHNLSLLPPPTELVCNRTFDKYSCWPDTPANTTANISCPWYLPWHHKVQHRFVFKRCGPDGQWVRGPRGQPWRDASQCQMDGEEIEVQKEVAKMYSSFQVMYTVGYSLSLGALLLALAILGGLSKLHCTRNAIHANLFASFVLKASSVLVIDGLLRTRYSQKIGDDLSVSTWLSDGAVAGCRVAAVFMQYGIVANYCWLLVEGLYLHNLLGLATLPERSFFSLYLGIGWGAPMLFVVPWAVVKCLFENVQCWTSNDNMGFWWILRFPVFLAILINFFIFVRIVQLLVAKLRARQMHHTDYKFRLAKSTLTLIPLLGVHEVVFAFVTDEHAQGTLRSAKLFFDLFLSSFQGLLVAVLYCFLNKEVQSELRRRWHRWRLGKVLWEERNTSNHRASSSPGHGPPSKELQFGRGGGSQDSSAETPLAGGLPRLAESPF
T1 sequence (P43220 24-463): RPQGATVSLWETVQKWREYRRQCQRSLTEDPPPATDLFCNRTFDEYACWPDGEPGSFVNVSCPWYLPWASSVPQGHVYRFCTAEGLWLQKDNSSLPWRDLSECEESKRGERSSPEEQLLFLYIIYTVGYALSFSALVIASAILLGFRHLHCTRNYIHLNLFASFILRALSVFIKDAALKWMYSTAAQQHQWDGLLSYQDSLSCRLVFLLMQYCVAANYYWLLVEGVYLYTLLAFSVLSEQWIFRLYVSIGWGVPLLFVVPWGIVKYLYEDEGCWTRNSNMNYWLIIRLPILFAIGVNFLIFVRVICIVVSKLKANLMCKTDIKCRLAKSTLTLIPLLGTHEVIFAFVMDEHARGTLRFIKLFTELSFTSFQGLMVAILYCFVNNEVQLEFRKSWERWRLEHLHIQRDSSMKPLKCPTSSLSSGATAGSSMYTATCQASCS

SMILES: CCCCCCCCCCCCCCCC(=O)N[C@@H](CCC(=O)NCCCC[C@H](NC(=O)[C@H](CCC(N)=O)NC(=O)[C@@H](NC(=O)[C@H](CO)NC(=O)[C@H](CC(C)C)NC(=O)[C@H](CC(=O)O)NC(=O)[C@H](CO)NC(=O)[C@@H](NC(=O)[C@H](Cc1ccccc1)NC(=O)[C@@H](NC(=O)CNC(=O)[C@H](CCC(N)=O)NC(=O)C(C)(C)NC(=O)[C@@H](N)Cc1ccc(O)cc1)[C@@H](C)O)[C@@H](C)O)[C@@H](C)CC)C(=O)N[C@@H](CC(=O)O)C(=O)N[C@@H](CO)C(=O)N[C@@H](CCCNC(=N)N)C(=O)N[C@@H](C)C(=O)N[C@@H](C)C(=O)N[C@@H](CCC(N)=O)C(=O)N[C@@H](CC(=O)O)C(=O)N[C@@H](Cc1ccccc1)C(=O)N[C@H](C(=O)N[C@@H](CCC(=O)O)C(=O)N[C@@H](Cc1c[nH]c2ccccc12)C(=O)N[C@@H](CC(C)C)C(=O)N[C@@H](CCCCN)C(=O)N[C@@H](CCCCN)C(=O)NCC(=O)NCC(=O)N1CCC[C@H]1C(=O)N[C@@H](CO)C(=O)N[C@@H](CO)C(=O)NCC(=O)N[C@@H](C)C(=O)N1CCC[C@H]1C(=O)N1CCC[C@H]1C(=O)N1CCC[C@H]1C(=O)N[C@@H](CO)C(N)=O)[C@@H](C)CC)C(=O)O [SEQ ID NO: 43, Y-Aib-Q-G-T-F-T-S-D-L-S-I-Q-K(yE-x53)-DSRAAQDFIEWLKKGGPSSGAPPPS-NH2] (H-Y[Aib]QGTFTSDLSIQK([γGlu-Palmitoyl])DSRAAQDFIEWLKKGGPSSGAPPPS-NH2)
- EC50 [1]: 0.007 nM
- EC50 [2]: 0.0482 nM
- EC50 [3]: 0.114 nM

SMILES: CCCCCCCCCCCCCCCC(=O)N[C@@H](CCC(=O)NCCCC[C@H](NC(=O)[C@H](CCC(N)=O)NC(=O)[C@@H](NC(=O)[C@H](CO)NC(=O)[C@H](CC(C)C)NC(=O)[C@H](CC(=O)O)NC(=O)[C@H](CO)NC(=O)[C@@H](NC(=O)[C@H](Cc1ccccc1)NC(=O)[C@@H](NC(=O)CNC(=O)[C@H](CCC(N)=O)NC(=O)C(C)(C)NC(=O)[C@@H](N)Cc1ccc(O)cc1)[C@@H](C)O)[C@@H](C)O)[C@@H](C)CC)C(=O)N[C@@H](CC(=O)O)C(=O)N[C@@H](CO)C(=O)N[C@@H](CCCNC(=N)N)C(=O)N[C@@H](C)C(=O)N[C@@H](C)C(=O)N[C@@H](CCC(N)=O)C(=O)N[C@@H](CC(=O)O)C(=O)N[C@@H](Cc1ccccc1)C(=O)N[C@H](C(=O)N[C@@H](CCC(=O)O)C(=O)N[C@@H](Cc1c[nH]c2ccccc12)C(=O)N[C@@H](CC(C)C)C(=O)N[C@@H](CCCCN)C(=O)N[C@@H](CCCNC(=N)N)C(=O)NCC(=O)NCC(=O)N1CCC[C@H]1C(=O)N[C@@H](CO)C(=O)N[C@@H](CO)C(=O)NCC(=O)N[C@@H](C)C(=O)N1CCC[C@H]1C(=O)N1CCC[C@H]1C(=O)N1CCC[C@H]1C(=O)N[C@@H](CO)C(N)=O)[C@@H](C)CC)C(=O)O [SEQ ID NO: 34, Y-Aib-Q-G-T-F-T-S-D-L-S-I-Q-K(yE-x53)-DSRAAQDFIEWLKRGGPSSGAPPPS-NH2] (H-Y[Aib]QGTFTSDLSIQK([γGlu-Palmitoyl])DSRAAQDFIEWLKRGGPSSGAPPPS-NH2)
- EC50 [1]: 0.0074 nM
- EC50 [2]: 0.0513 nM
- EC50 [3]: 0.222 nM

SMILES: CCCCCCCCCCCCCCCC(=O)N[C@@H](CCC(=O)NCCCC[C@H](NC(=O)[C@H](CCC(N)=O)NC(=O)[C@@H](NC(=O)[C@H](CO)NC(=O)[C@H](CC(C)C)NC(=O)[C@H](CC(=O)O)NC(=O)[C@H](CO)NC(=O)[C@@H](NC(=O)[C@H](Cc1ccccc1)NC(=O)[C@@H](NC(=O)CNC(=O)[C@H](CCC(=O)O)NC(=O)C(C)(C)NC(=O)[C@@H](N)Cc1ccc(O)cc1)[C@@H](C)O)[C@@H](C)O)[C@@H](C)CC)C(=O)N[C@@H](CCC(=O)O)C(=O)N[C@@H](CCC(=O)O)C(=O)N[C@@H](CCCNC(=N)N)C(=O)N[C@@H](C)C(=O)N[C@@H](C)C(=O)N[C@@H](Cc1c[nH]cn1)C(=O)N[C@@H](CCC(=O)O)C(=O)N[C@@H](Cc1ccccc1)C(=O)N[C@H](C(=O)N[C@@H](CCC(=O)O)C(=O)N[C@@H](Cc1c[nH]c2ccccc12)C(=O)N[C@@H](CC(C)C)C(=O)N[C@@H](CCCCN)C(=O)N[C@@H](CCCNC(=N)N)C(=O)NC(C)(C)C(=O)NCC(=O)N1CCC[C@H]1C(=O)N[C@@H](CO)C(=O)N[C@@H](CO)C(=O)NCC(=O)N[C@@H](C)C(=O)N1CCC[C@H]1C(=O)N1CCC[C@H]1C(=O)N1CCC[C@H]1C(=O)N[C@@H](CO)C(=O)N[C@@H](CCCCN)C(N)=O)[C@@H](C)CC)C(=O)O [SEQ ID NO: 57, Y-Aib-E-G-T-F-T-S-D-L-S-I-Q-K(yE-x53)-E-E-R-A-A-H-E-F-I-E-W-L-K-R-Aib-G-P-S-S-G-A-P-P-P-S-K-NH2]
- EC50 [1]: 0.0071 nM
- EC50 [2]: 0.0157 nM
- EC50 [3]: 14.4 nM

SMILES: CCCCCCCCCCCCCCCC(=O)N[C@@H](CCC(=O)NCCCC[C@H](NC(=O)[C@H](CCC(N)=O)NC(=O)[C@@H](NC(=O)[C@H](CO)NC(=O)[C@H](CC(C)C)NC(=O)[C@H](CC(=O)O)NC(=O)[C@H](CO)NC(=O)[C@@H](NC(=O)[C@H](Cc1ccccc1)NC(=O)[C@@H](NC(=O)CNC(=O)[C@H](CCC(N)=O)NC(=O)C(C)(C)NC(=O)[C@@H](N)Cc1ccc(O)cc1)[C@@H](C)O)[C@@H](C)O)[C@@H](C)CC)C(=O)N[C@@H](CCC(=O)O)C(=O)N[C@@H](CCCCN)C(=O)N[C@@H](Cc1ccc(O)cc1)C(=O)N[C@@H](C)C(=O)N[C@@H](C)C(=O)NC(C)(C)C(=O)N[C@@H](CCC(=O)O)C(=O)N[C@@H](Cc1ccccc1)C(=O)N[C@H](C(=O)N[C@@H](CCC(=O)O)C(=O)N[C@@H](Cc1c[nH]c2ccccc12)C(=O)N[C@@H](CC(C)C)C(=O)N[C@@H](CCCCN)C(=O)N[C@@H](CC(N)=O)C(=O)N[C@H](C(=O)NCC(=O)N1CCC[C@H]1C(=O)N[C@@H](CO)C(=O)N[C@@H](CO)C(=O)NCC(=O)N[C@@H](C)C(=O)N1CCC[C@H]1C(=O)N1CCC[C@H]1C(=O)N1CCC[C@H]1C(=O)N[C@@H](CO)C(N)=O)[C@@H](C)O)[C@@H](C)CC)C(=O)O [SEQ ID NO: 10, Y-Aib-Q-G-T-F-T-S-D-L-S-I-Q-K(yE-x53)-E-K-Y-A-A-Aib-E-F-I-E-W-L-K-N-T-G-P-S-S-G-A-P-P-P-S-NH2] (H-Y[Aib]QGTFTSDLSIQK([γGlu-Palmitoyl])EKYAA[Aib]EFIEWLKNTGPSSGAPPPS-NH2)
- EC50 [1]: 0.0052 nM
- EC50 [2]: 0.0144 nM
- EC50 [3]: 0.667 nM

SMILES: CCCCCCCCCCCCCCCCCC(=O)N[C@@H](CCC(=O)NCCCC[C@H](NC(=O)[C@H](CCC(N)=O)NC(=O)[C@H](CCCCN)NC(=O)[C@H](CO)NC(=O)[C@H](CC(C)C)NC(=O)[C@H](CC(=O)O)NC(=O)[C@H](CO)NC(=O)[C@@H](NC(=O)[C@H](Cc1ccccc1)NC(=O)[C@@H](NC(=O)CNC(=O)[C@H](CCC(N)=O)NC(=O)C(C)(C)NC(=O)[C@@H](N)Cc1ccc(O)cc1)[C@@H](C)O)[C@@H](C)O)C(=O)N[C@@H](CC(=O)O)C(=O)N[C@@H](CO)C(=O)N[C@@H](CCCCN)C(=O)N[C@@H](C)C(=O)N[C@@H](C)C(=O)N[C@@H](CCC(N)=O)C(=O)N[C@@H](CC(=O)O)C(=O)N[C@@H](Cc1ccccc1)C(=O)N[C@H](C(=O)N[C@@H](CCC(=O)O)C(=O)N[C@@H](Cc1c[nH]c2ccccc12)C(=O)N[C@@H](CC(C)C)C(=O)N[C@@H](CCCCN)C(=O)N[C@@H](C)C(=O)NCC(=O)NCC(=O)N1CCC[C@H]1C(=O)N[C@@H](CO)C(=O)N[C@@H](CO)C(=O)NCC(=O)N[C@@H](C)C(=O)N1CCC[C@H]1C(=O)N1CCC[C@H]1C(=O)N1CCC[C@H]1C(=O)N[C@@H](CO)C(N)=O)[C@@H](C)CC)C(=O)O [SEQ ID NO: 41, Y-Aib-Q-G-T-F-T-S-D-L-S-K-Q-K(yE-x70)-DSKAAQDFIEWLKAGGPSSGAPPPS-NH2] (H-Y[Aib]QGTFTSDLSKQK([γGlu-Stearoyl])DSKAAQDFIEWLKAGGPSSGAPPPS-NH2)
- EC50 [1]: 0.0241 nM
- EC50 [2]: 0.186 nM
- EC50 [3]: 0.0265 nM
